Where two headings read alike, the source gives them in different places. Residues, ends and D or L forms follow the SMILES beside them. *: point of attachment. X1 = Cc1nn(CCN(CCN)CCCC(=O)*)c(C)c1CC(=O)O
How the values were obtained:
[1] = Partition coefficient (log Po/w) of radiopeptides; format: physicochemical
Excerpt: Table 7 lists each peptide's name, isoelectric point (PI), charge (number of positive residues), calculated mass (in Da), and ion found; as well as the name, calculated mass, and found ion for the corresponding conjugate; and also retention times in HPLC and the partition coefficient (log Po/w). These values allowed the determination of the hydrophilic nature of peptides, where pepH1 and pepH4 were identified as the most hydrophilic peptides.

[2] = Biodistribution of technetium-labelled peptides; format: in vivo, CD1 mice
Procedure: To evaluate the capacity to cross the BBB in vivo, the selected peptides, pepH1 and pepH3, were analyzed for biodistribution in CD1 mice. The peptides were labelled with technetium at a final concentration of 8.5×10^−5 M and diluted in PBS. CD1 mice were injected (iv injection, tail vein). The mice were sacrificed by cervical dislocation after 5 and 60 minutes of incubation. The tissues of interest were dissected and washed to remove excess blood, weighed, and measured for radioactivity. Technetium radioactivity of the different peptides was measured for different organs.
Initial results are presented in Table 11, where “% I.A. refers to the “% injected activity”, that is, the amount of radioactivity measured in a given organ compared to the total originally injected.
The biodistribution studies were repeated, using higher doses of each peptide, specifically, a one hundred fold increase, as well as using PepH2 as a negative control, and allowing incubation for 2 minutes and 60 minutes. Tissue biodistribution profile in percentage of injected radiopeptide activity per gram of tissue/organ was measured and results are presented in Table 12.

Cc1nn(CCN(CCN)CCCC(=O)N[C@H](C(=O)N[C@@H](CCC(N)=O)C(=O)N[C@@H](CCC(N)=O)C(=O)N[C@@H](CC(C)C)C(=O)N[C@H](C(=O)N[C@@H](CCCCN)C(=O)N[C@@H](CCCNC(=N)N)C(=O)N[C@@H](Cc2ccccc2)C(=O)N[C@@H](CO)C(=O)N[C@@H](CC(C)C)C(=O)O)[C@@H](C)O)C(C)C)c(C)c1CC(=O)O [^99mTc(CO)3-Pz^1-pepH1, metal not drawn] (X1-VQQLTKRFSL-OH; C-terminus assumed)
log Po/w of radiopeptides [1]: −1.76 ± 0.11
injected activity in Blood ([2]; 140 μg/mouse, 1 hour): 1.0 ± 0.2 % I.A./g
injected activity in Bone ([2]; 140 μg/mouse, 1 hour): 0.16 ± 0.01 % I.A./g
injected activity in Brain ([2]; 140 μg/mouse, 1 hour): 0.03 ± 0.00 % I.A./g
injected activity in Heart ([2]; 140 μg/mouse, 1 hour): 0.39 ± 0.02 % I.A./g
injected activity in Intestine ([2]; 140 μg/mouse, 1 hour): 13.0 ± 2.0 % I.A./g
injected activity in Kidney ([2]; 140 μg/mouse, 1 hour): 1.6 ± 0.3 % I.A./g
injected activity in Liver ([2]; 140 μg/mouse, 1 hour): 2.4 ± 1.0 % I.A./g
injected activity in Lung ([2]; 140 μg/mouse, 1 hour): 1.4 ± 0.3 % I.A./g
injected activity in Muscle ([2]; 140 μg/mouse, 1 hour): 0.2 ± 0.0 % I.A./g
injected activity in Spleen ([2]; 140 μg/mouse, 1 hour): 0.22 ± 0.01 % I.A./g
injected activity in Stomach ([2]; 140 μg/mouse, 1 hour): 0.31 ± 0.08 % I.A./g
tissue uptake at 2 min ([2]; CD1, blood, iv, 140 ug/mouse, total radioactivity, 140 μg/mouse, 2 min, read-out: injected activity in Blood): 3.1 ± 0.5 %ID/g
tissue uptake at 2 min ([2]; CD1, bone, iv, 140 ug/mouse, total radioactivity, 140 μg/mouse, 2 min, read-out: injected activity in Bone): 0.6 ± 0.2 %ID/g
tissue uptake at 2 min ([2]; CD1, brain, iv, 140 ug/mouse, total radioactivity, 140 μg/mouse, 2 min, read-out: injected activity in Brain): 0.11 ± 0.02 %ID/g
tissue uptake at 2 min ([2]; CD1, heart, iv, 140 ug/mouse, total radioactivity, 140 μg/mouse, 2 min, read-out: injected activity in Heart): 1.1 ± 0.4 %ID/g
dose excreted at 2 min ([2]; CD1, in vivo, iv, 140 ug/mouse, total radioactivity, 140 μg/mouse, 2 min, read-out: Excretion): 17.1 ± 7.9%
dose excreted at 1 h ([2]; CD1, in vivo, iv, 140 ug/mouse, total radioactivity, 140 μg/mouse, 1 hour, read-out: Excretion): 32.7 ± 0.2%
tissue uptake at 2 min ([2]; CD1, intestine, iv, 140 ug/mouse, total radioactivity, 140 μg/mouse, 2 min, read-out: injected activity in Intestine): 3.8 ± 2.3 %ID/g
tissue uptake at 2 min ([2]; CD1, kidney, iv, 140 ug/mouse, total radioactivity, 140 μg/mouse, 2 min, read-out: injected activity in Kidney): 14.6 ± 8.2 %ID/g
tissue uptake at 2 min ([2]; CD1, liver, iv, 140 ug/mouse, total radioactivity, 140 μg/mouse, 2 min, read-out: injected activity in Liver): 7 ± 1.1 %ID/g
tissue uptake at 2 min ([2]; CD1, lung, iv, 140 ug/mouse, total radioactivity, 140 μg/mouse, 2 min, read-out: injected activity in Lung): 2.6 ± 0.5 %ID/g
tissue uptake at 2 min ([2]; CD1, muscle, iv, 140 ug/mouse, total radioactivity, 140 μg/mouse, 2 min, read-out: injected activity in Muscle): 0.6 ± 0.2 %ID/g
tissue uptake at 2 min ([2]; CD1, spleen, iv, 140 ug/mouse, total radioactivity, 140 μg/mouse, 2 min, read-out: injected activity in Spleen): 0.7 ± 0.2 %ID/g
tissue uptake at 2 min ([2]; CD1, stomach, iv, 140 ug/mouse, total radioactivity, 140 μg/mouse, 2 min, read-out: injected activity in Stomach): 0.7 ± 0.4 %ID/g
tissue uptake at 5 min ([2]; mouse, blood, 10 ug, total radioactivity, CD1 mice, iv, 5 min, 10 μg, read-out: injected activity in Blood): 3.1 ± 0.5 %ID/g
tissue uptake at 1 h ([2]; mouse, blood, 10 ug, total radioactivity, CD1 mice, iv, 1 hour, 10 μg, read-out: injected activity in Blood): 1 ± 0.2 %ID/g
tissue uptake at 5 min ([2]; mouse, bone, 10 ug, total radioactivity, CD1 mice, iv, 5 min, 10 μg, read-out: injected activity in Bone): 0.6 ± 0.2 %ID/g
tissue uptake at 1 h ([2]; mouse, bone, 10 ug, total radioactivity, CD1 mice, iv, 1 hour, 10 μg, read-out: injected activity in Bone): 0.16 ± 0.01 %ID/g
tissue uptake at 5 min ([2]; mouse, brain, 10 ug, total radioactivity, CD1 mice, iv, 5 min, 10 μg, read-out: injected activity in Brain): 0.11 ± 0.02 %ID/g
tissue uptake at 1 h ([2]; mouse, brain, 10 ug, total radioactivity, CD1 mice, iv, 1 hour, 10 μg, read-out: injected activity in Brain): 0.03 %ID/g
tissue uptake at 5 min ([2]; mouse, heart, 10 ug, total radioactivity, CD1 mice, iv, 5 min, 10 μg, read-out: injected activity in Heart): 1.1 ± 0.4 %ID/g
tissue uptake at 1 h ([2]; mouse, heart, 10 ug, total radioactivity, CD1 mice, iv, 1 hour, 10 μg, read-out: injected activity in Heart): 0.39 ± 0.02 %ID/g
percent of injected dose excreted at 5 min ([2]; mouse, in vivo, 10 ug, total radioactivity, CD1 mice, iv, 5 min, 10 μg, read-out: Excretion): 17.1 ± 7.9 %ID
percent of injected dose excreted at 1 h ([2]; mouse, in vivo, 10 ug, total radioactivity, CD1 mice, iv, 1 hour, 10 μg, read-out: Excretion): 32.7 ± 0.2 %ID
tissue uptake at 5 min ([2]; mouse, intestine, 10 ug, total radioactivity, CD1 mice, iv, 5 min, 10 μg, read-out: injected activity in Intestine): 3.8 ± 2.3 %ID/g
tissue uptake at 1 h ([2]; mouse, intestine, 10 ug, total radioactivity, CD1 mice, iv, 1 hour, 10 μg, read-out: injected activity in Intestine): 13 ± 2 %ID/g
tissue uptake at 5 min ([2]; mouse, kidney, 10 ug, total radioactivity, CD1 mice, iv, 5 min, 10 μg, read-out: injected activity in Kidney): 14.6 ± 8.2 %ID/g
tissue uptake at 1 h ([2]; mouse, kidney, 10 ug, total radioactivity, CD1 mice, iv, 1 hour, 10 μg, read-out: injected activity in Kidney): 1.6 ± 0.3 %ID/g
tissue uptake at 5 min ([2]; mouse, liver, 10 ug, total radioactivity, CD1 mice, iv, 5 min, 10 μg, read-out: injected activity in Liver): 7 ± 1.1 %ID/g
tissue uptake at 1 h ([2]; mouse, liver, 10 ug, total radioactivity, CD1 mice, iv, 1 hour, 10 μg, read-out: injected activity in Liver): 2.4 ± 1 %ID/g
tissue uptake at 5 min ([2]; mouse, lung, 10 ug, total radioactivity, CD1 mice, iv, 5 min, 10 μg, read-out: injected activity in Lung): 2.6 ± 0.5 %ID/g
tissue uptake at 1 h ([2]; mouse, lung, 10 ug, total radioactivity, CD1 mice, iv, 1 hour, 10 μg, read-out: injected activity in Lung): 1.4 ± 0.3 %ID/g
tissue uptake at 5 min ([2]; mouse, muscle, 10 ug, total radioactivity, CD1 mice, iv, 5 min, 10 μg, read-out: injected activity in Muscle): 0.6 ± 0.2 %ID/g
tissue uptake at 1 h ([2]; mouse, muscle, 10 ug, total radioactivity, CD1 mice, iv, 1 hour, 10 μg, read-out: injected activity in Muscle): 0.2 %ID/g
tissue uptake at 5 min ([2]; mouse, pancreas, 10 ug, total radioactivity, CD1 mice, iv, 5 min, 10 μg, read-out: injected activity in Pancreas): 0.8 ± 0.2 %ID/g
tissue uptake at 1 h ([2]; mouse, pancreas, 10 ug, total radioactivity, CD1 mice, iv, 1 hour, 10 μg, read-out: injected activity in Pancreas): 0.41 ± 0.01 %ID/g
tissue uptake at 5 min ([2]; mouse, spleen, 10 ug, total radioactivity, CD1 mice, iv, 5 min, 10 μg, read-out: injected activity in Spleen): 0.7 ± 0.2 %ID/g
tissue uptake at 1 h ([2]; mouse, spleen, 10 ug, total radioactivity, CD1 mice, iv, 1 hour, 10 μg, read-out: injected activity in Spleen): 0.22 ± 0.01 %ID/g
tissue uptake at 5 min ([2]; mouse, stomach, 10 ug, total radioactivity, CD1 mice, iv, 5 min, 10 μg, read-out: injected activity in Stomach): 0.7 ± 0.4 %ID/g
tissue uptake at 1 h ([2]; mouse, stomach, 10 ug, total radioactivity, CD1 mice, iv, 1 hour, 10 μg, read-out: injected activity in Stomach): 0.31 ± 0.08 %ID/g
